Results from the supplement of paper PMC6045584.
± gives the standard deviation of the averaged measurements.

Assays:
[1] = compound: C[C@@H](Oc1cc(-c2cnn(C3CCNCC3)c2)cnc1N)c1c(Cl)ccc(F)c1Cl; experiment: surviving fraction relative to DMSO-only wells; higher = less growth inhibition; conditions: exposure time: 5 days
In short: (§1)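 Lines were retained only if, across three screens, replicate Pearson r was >0.7 and median Z' was >0.3. Viability was measured as CellTiter-Glo luminescence and reported as surviving fraction relative to the median of DMSO-only wells. Readings followed 10 minutes at room temperature, after log-phase tumour cells seeded at 250–500 per well in 384-well plates had been exposed, from 24 hours after seeding, continuously for five days to inhibitors at 0.5, 1, 5, 10, 50, 100, 500 and 1000 nM.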

[2] = compound: COc1cc2ncnc(Nc3ccc(F)c(Cl)c3)c2cc1NC(=O)/C=C/CN1CCCCC1; experiment: as above; conditions: exposure time: 5 days
In short: as §1

Test System | surviving fraction ([1]; 0.5 nM) | surviving fraction ([1]; 1 nM) | surviving fraction ([1]; 5 nM) | surviving fraction ([1]; 10 nM) | surviving fraction ([1]; 50 nM) | surviving fraction ([1]; 100 nM) | surviving fraction ([1]; 500 nM) | surviving fraction ([1]; 1000 nM) | surviving fraction ([2]; 0.5 nM) | surviving fraction ([2]; 1 nM) | surviving fraction ([2]; 5 nM) | surviving fraction ([2]; 10 nM) | surviving fraction ([2]; 50 nM) | surviving fraction ([2]; 100 nM) | surviving fraction ([2]; 500 nM) | surviving fraction ([2]; 1000 nM)
SCC47 HEADNECK | 0.909 ± 0.012 | 0.9017 ± 0.0072 | 0.988 ± 0.018 | 0.924 ± 0.037 | 1.06 ± 0.031 | 0.96 ± 0.066 | 0.721 ± 0.017 | 0.472 ± 0.024 | 0.927 ± 0.031 | 0.976 ± 0.041 | 0.804 ± 0.1 | 0.745 ± 0.028 | 0.625 ± 0.026 | 0.59 ± 0.025 | 0.512 ± 0.031 | 0.375 ± 0.039
MG63 BONE | 0.898 ± 0.011 | 0.912 ± 0.016 | – | – | 0.91 ± 0.029 | 0.827 ± 0.023 | 0.711 ± 0.02 | 0.607 ± 0.004 | 1.04 ± 0.072 | 1 ± 0.049 | 1.05 ± 0.033 | 1.06 ± 0.062 | 1.04 ± 0.056 | 1.03 ± 0.08 | 0.911 ± 0.039 | 0.89 ± 0.073
CAL72 BONE | 1 ± 0.02 | 1.04 ± 0.024 | 1.02 ± 0.029 | – | 1.09 ± 0.047 | 1.1 ± 0.013 | 0.903 ± 0.025 | 0.9047 ± 0.0064 | 1.08 ± 0.014 | 1.06 ± 0.042 | 1.08 ± 0.062 | 1.03 ± 0.024 | 1.06 ± 0.055 | 1.07 ± 0.034 | 0.943 ± 0.019 | 0.818 ± 0.017
CME SYNOVIAL | 0.902 ± 0.043 | – | 0.98 ± 0.25 | 0.902 ± 0.12 | 1.04 ± 0.04 | 1.06 ± 0.14 | 0.634 ± 0.054 | 0.272 ± 0.007 | 1.2 ± 0.09 | 1.4 ± 0.17 | 1.29 ± 0.12 | 1.39 ± 0.15 | 1.42 ± 0.18 | 1.37 ± 0.11 | 1.26 ± 0.098 | 1.27 ± 0.12
93VU HEADNECK | 0.809 ± 0.025 | 0.816 ± 0.02 | 0.835 ± 0.043 | 0.866 ± 0.068 | 1.08 ± 0.068 | 1.06 ± 0.083 | 0.77 ± 0.02 | 0.521 ± 0.068 | 0.834 ± 0.065 | 0.8653 ± 0.005 | 0.651 ± 0.02 | 0.541 ± 0.12 | 0.465 ± 0.016 | 0.456 ± 0.034 | 0.353 ± 0.036 | 0.267 ± 0.025
143B BONE | 0.997 ± 0.012 | – | – | 0.997 ± 0.012 | – | 1.002 ± 0.0092 | 0.811 ± 0.039 | 0.643 ± 0.061 | 1.03 ± 0.027 | 1.006 ± 0.005 | 1.01 ± 0.067 | 1.01 ± 0.033 | 1.02 ± 0.018 | 1.01 ± 0.03 | 0.957 ± 0.016 | 0.831 ± 0.04
SUM149 BREAST | 0.897 ± 0.12 | 0.877 ± 0.094 | – | 0.86 ± 0.045 | – | 0.893 ± 0.1 | 0.73 ± 0.064 | 0.415 ± 0.029 | 1.03 ± 0.095 | 1.03 ± 0.061 | 0.851 ± 0.04 | 0.747 ± 0.044 | 0.515 ± 0.056 | 0.395 ± 0.091 | 0.362 ± 0.013 | 0.341 ± 0.071
SCC90 HEADNECK | – | 0.913 ± 0.028 | 0.934 ± 0.045 | – | 1.12 ± 0.098 | 1.17 ± 0.13 | 0.717 ± 0.028 | – | 0.948 ± 0.041 | 0.938 ± 0.039 | 0.647 ± 0.1 | 0.608 ± 0.018 | 0.388 ± 0.017 | 0.4 ± 0.024 | 0.377 ± 0.066 | 0.294 ± 0.023
S68 BREAST | 0.733 ± 0.09 | 0.819 ± 0.31 | – | 0.838 ± 0.19 | – | 0.847 ± 0.16 | 0.567 ± 0.19 | 0.398 ± 0.084 | 0.768 ± 0.15 | 1.01 ± 0.15 | 1.03 ± 0.27 | 0.764 ± 0.12 | 0.701 ± 0.085 | 0.667 ± 0.14 | 0.603 ± 0.033 | 0.256 ± 0.024
U2OS BONE | 0.938 ± 0.047 | 0.974 ± 0.027 | 0.98 ± 0.028 | – | – | 0.976 ± 0.052 | 0.474 ± 0.02 | 0.472 ± 0.012 | 1.03 ± 0.023 | 1.03 ± 0.025 | 1.02 ± 0.025 | 1.01 ± 0.038 | 1.04 ± 0.015 | 1.06 ± 0.027 | 0.906 ± 0.033 | 0.798 ± 0.034
MCF7 BREAST | 0.826 ± 0.063 | 0.818 ± 0.027 | 0.827 ± 0.046 | 0.802 ± 0.03 | 0.89 ± 0.021 | 0.834 ± 0.034 | 0.755 ± 0.011 | 0.511 ± 0.017 | 0.908 ± 0.061 | 0.938 ± 0.022 | 0.922 ± 0.08 | 0.971 ± 0.096 | 1.01 ± 0.043 | 0.966 ± 0.034 | 1.01 ± 0.012 | 0.927 ± 0.07
SUM44 BREAST | 0.865 ± 0.038 | 0.874 ± 0.056 | 0.983 ± 0.021 | 0.935 ± 0.029 | – | 1.04 ± 0.026 | 0.892 ± 0.077 | 0.798 ± 0.046 | 1.01 ± 0.028 | 1.03 ± 0.031 | 1.01 ± 0.05 | 1.01 ± 0.053 | 1.03 ± 0.06 | 1.07 ± 0.018 | 0.916 ± 0.044 | 0.727 ± 0.0096
SIHA CERVIX | 0.92 ± 0.038 | 0.931 ± 0.01 | – | 0.931 ± 0.034 | 0.99 ± 0.011 | 1.07 ± 0.068 | 0.676 ± 0.042 | 0.628 ± 0.075 | 1.05 ± 0.12 | 0.994 ± 0.043 | 1.02 ± 0.082 | 1.1 ± 0.074 | 1.04 ± 0.11 | 1.06 ± 0.11 | 0.862 ± 0.055 | 0.672 ± 0.067
VCAP PROSTATE | – | 0.919 ± 0.097 | 1.02 ± 0.091 | 1.01 ± 0.031 | 1.08 ± 0.055 | 0.897 ± 0.061 | 0.429 ± 0.027 | 0.143 ± 0.0055 | 0.95 ± 0.04 | 0.769 ± 0.036 | 0.967 ± 0.08 | 1.04 ± 0.12 | 1.04 ± 0.048 | 0.996 ± 0.14 | 0.725 ± 0.078 | 0.406 ± 0.025
HUO3N1 BONE | – | – | 0.971 ± 0.034 | – | 0.974 ± 0.02 | 0.954 ± 0.029 | 0.842 ± 0.019 | 0.695 ± 0.031 | 1.03 ± 0.037 | 0.983 ± 0.057 | 1.06 ± 0.065 | 1 ± 0.016 | 1.07 ± 0.073 | 1.03 ± 0.059 | 0.789 ± 0.018 | 0.629 ± 0.032
YAMATO SYNOVIAL | 0.796 ± 0.0095 | 0.763 ± 0.069 | 0.79 ± 0.015 | 0.724 ± 0.12 | 0.425 ± 0.015 | 0.309 ± 0.014 | 0.279 ± 0.014 | 0.333 ± 0.024 | 1.23 ± 0.053 | 1.29 ± 0.18 | 1.3 ± 0.02 | 1.45 ± 0.17 | 1.31 ± 0.095 | 1.39 ± 0.068 | 1.31 ± 0.16 | 1.27 ± 0.077
ASKA SYNOVIAL | 0.873 ± 0.092 | 0.773 ± 0.061 | 0.78 ± 0.035 | 0.69 ± 0.044 | 0.527 ± 0.028 | 0.415 ± 0.021 | 0.246 ± 0.014 | 0.249 ± 0.014 | 1.11 ± 0.094 | 1.23 ± 0.051 | 1.15 ± 0.038 | 1.24 ± 0.14 | 1.3 ± 0.068 | 1.29 ± 0.04 | 0.959 ± 0.021 | 1.12 ± 0.019
MDAMB436 BREAST | 0.833 ± 0.046 | 0.828 ± 0.06 | 0.844 ± 0.057 | 0.822 ± 0.046 | 0.996 ± 0.014 | 0.962 ± 0.067 | 0.872 ± 0.036 | 0.736 ± 0.027 | 0.922 ± 0.08 | 0.975 ± 0.077 | 0.895 ± 0.021 | 0.971 ± 0.17 | 0.996 ± 0.053 | 0.89 ± 0.11 | 0.771 ± 0.065 | 0.706 ± 0.085
H23 LUNG | 0.9503 ± 0.0081 | – | 0.963 ± 0.034 | – | 0.9953 ± 0.0047 | 0.993 ± 0.023 | 0.926 ± 0.049 | 0.688 ± 0.019 | 0.91 ± 0.056 | 0.744 ± 0.035 | 0.468 ± 0.015 | 0.414 ± 0.026 | 0.381 ± 0.013 | 0.38 ± 0.018 | 0.332 ± 0.023 | 0.292 ± 0.023
COLO320DM LARGE INTESTINE | – | 1.13 ± 0.071 | 1.02 ± 0.041 | 0.977 ± 0.042 | 1.05 ± 0.042 | 1.02 ± 0.027 | 0.512 ± 0.0092 | 0.341 ± 0.011 | 1.04 ± 0.011 | 1.15 ± 0.067 | 1.07 ± 0.015 | 1.07 ± 0.068 | 1.12 ± 0.076 | 1.07 ± 0.055 | 0.685 ± 0.03 | 0.377 ± 0.025
PCI30 HEADNECK | 0.959 ± 0.036 | – | 1.07 ± 0.058 | – | 1.06 ± 0.076 | 1.11 ± 0.046 | 0.679 ± 0.039 | 0.513 ± 0.016 | 0.985 ± 0.029 | 1.01 ± 0.087 | 0.649 ± 0.07 | 0.551 ± 0.078 | 0.393 ± 0.01 | 0.392 ± 0.013 | 0.194 ± 0.035 | 0.0737 ± 0.0085
SYO1 SYNOVIAL | 0.814 ± 0.068 | 0.821 ± 0.064 | 0.822 ± 0.031 | 0.781 ± 0.027 | 0.904 ± 0.01 | 0.829 ± 0.036 | 0.26 ± 0.063 | 0.123 ± 0.0083 | 0.9794 ± 0.0088 | 0.993 ± 0.068 | 0.91 ± 0.023 | 0.929 ± 0.048 | 0.971 ± 0.055 | 0.974 ± 0.039 | 0.784 ± 0.018 | 0.422 ± 0.022
